Measured values published in patent publication US7838234B2, “Methods for determining cancer resistance to histone deacetylase inhibitors” (Pharmacyclics, Inc., priority 2007, dated 2010).

How the values were obtained:
[1] = system: primary colorectal tumors (colon carcinoma biopsies); experiment: Soft agar chemosensitivity assay (tritiated thymidine incorporation) of primary colorectal tumors ex vivo; assay type: cell-based, human
From the text: The method used soft agar chemosensitivity assays in which primary human tumors were exposed in culture to PCI-24781. Either a trititated thymidine or alamar blue assay was then used to estimate the percentage of resistance to PCI-24781. For example in the trititated thymidine assay, sensitive tumor cells affected by the drug divided less and therefore incorporated less thymidine, whereas resistant tumor cells continued to grow and divide and therefore incorporated more thymidine into their DNA.
Primary colorectal cancer (CRC) samples were obtained from patient biopsies (Table 2). Viable tumor cells were plated and cultured in soft agar as described in Kern et al. (1990), J. Natl. Cancer Inst., 82:582-588, and were treated with a range of PCI-24781 concentrations (0.01-2 μM). Tritiated thymidine was added to the culture after 3 days of exposure to the drug, and the amount of radioactivity incorporated into the cells after a further 2 days was quantified. The percentage of cell growth inhibition (% GI) was calculated by comparing the treated cells to the control cells, and from these growth profiles the tumors were classified as either sensitive or resistant based on deviation from the median profile.
(§1) Subsequently, primary human tumor samples were obtained and viable tumor cells were plated in soft agar and treated with the HDAC inhibitor PCI-24781. Tritiated thymidine was added after 3 days, and 2 days later the radioactivity incorporated into the DNA was quantified. The tumors were then classified as either resistant (EDR: Extreme Drug Resistance), sensitive (LDR) or intermediate (IDR) based on deviation from the median profile (Oncotech, Inc. Tustin, Calif.).

[2] = system: primary colon tumor cells from newly diagnosed, naive patients; experiment: Ex vivo growth inhibition of primary colon tumor cells from newly diagnosed, naive patients; assay type: cell-based, human; settings: ex vivo cultured cells from twelve patients, FIG. 11A
[3] = system: advanced metastatic colon tumor cells; experiment: Ex vivo growth inhibition of advanced metastatic colon tumor cells; assay type: cell-based, human; settings: in a number of cases, FIG. 11B
AML primary tumor cells = experiment: Soft agar tritiated thymidine assay of primary human tumor samples, EDR/IDR/LDR classification: AML; assay type: cell-based
Description: as §1, with “Calif.). As predicted based on the HDACi responsive biomarker gene profiles hematopoietic tumors had the lowest proportion of resistant (EDR) tumors, and colon the most (38%). Among the solid tumors, ovarian had the lowest proportion of resistant tumors, consistent with the high HDACi-biomarker responsiveness of this tissue.” for “Calif.).”

[4] = system: Multiple Myeloma primary tumor cells; experiment: Soft agar tritiated thymidine assay of primary human tumor samples, EDR/IDR/LDR classification: multiple myeloma; assay type: cell-based
Description: as §1, with “Calif.). As predicted based on the HDACi responsive biomarker gene profiles hematopoietic tumors had the lowest proportion of resistant (EDR) tumors, and colon the most (38%). Among the solid tumors, ovarian had the lowest proportion of resistant tumors, consistent with the high HDACi-biomarker responsiveness of this tissue.” for “Calif.).”

[5] = system: Ovarian primary tumor cells; experiment: Soft agar tritiated thymidine assay of primary human tumor samples, EDR/IDR/LDR classification: ovarian; assay type: cell-based
Description: as §1, with “Calif.). As predicted based on the HDACi responsive biomarker gene profiles hematopoietic tumors had the lowest proportion of resistant (EDR) tumors, and colon the most (38%). Among the solid tumors, ovarian had the lowest proportion of resistant tumors, consistent with the high HDACi-biomarker responsiveness of this tissue.” for “Calif.).”

[6] = system: Glioblastoma primary tumor cells; experiment: Soft agar tritiated thymidine assay of primary human tumor samples, EDR/IDR/LDR classification: glioblastoma; assay type: cell-based
Description: as §1, with “Calif.). As predicted based on the HDACi responsive biomarker gene profiles hematopoietic tumors had the lowest proportion of resistant (EDR) tumors, and colon the most (38%). Among the solid tumors, ovarian had the lowest proportion of resistant tumors, consistent with the high HDACi-biomarker responsiveness of this tissue.” for “Calif.).”

[7] = system: HDACi resistance biomarker genes in colorectal tumor cells; experiment: Microarray gene expression profiling of colorectal tumor cells treated with PCI-24781 or untreated; assay type: cell-based, human; settings: PCI-24781 2 μM vs untreated
Description: After determining tumor sensitivity to PCI-24781, gene expression profiles were determined for resistant and sensitive tumors that were treated with PCI-24781 (2 μM) or untreated. Total RNA was isolated using Qiagen procedures (Qiagen, Inc., Valencia, Calif.) and fluorescent probes were prepared and hybridized to Codelink Human Whole Genome oligonucleotide microarrays containing ˜55,000 unique probes (GE Healthcare Bio-Sciences Corp., Piscataway, N.J.) according to the manufacturer's instructions. The microarrays were scanned in a GenePix 4000B scanner (Molecular Devices Corporation, Sunnyvale Calif.). The images were processed with Codelink software and the exported data was analyzed as follows.
The median-normalized microarray data were imported into Genespring software (Agilent), and principal component analysis (PCA) and hierarchical clustering analysis were performed. We looked for consistent results from multiple analysis methods to provide additional confidence in our results. For multiple hypothesis correction, we used the q-values approach for false discovery rates (FDR) as described in Storey et al. (2003), Proc. Nat. Acad. Sci. USA, 100:9440-9445. As a second analytical approach we adopted the Bayesian ANOVA approach described in Ishwaran et al. (2003), J. Amer. Stat. Assoc., 98:438-455. […]

[8] = system: acetylated tubulin in PBMC; experiment: Tubulin acetylation in peripheral blood mononuclear cells of treated mice (immunoblotting); assay type: in vivo, mouse; settings: female BALB/c mice, 50 mg/kg IV, 0.25-8 hours after dosing
Description: In brief, female BALB/c mice were injected IV with 50 mg/kg PCI-24781 or vehicle. Blood and various tissues were collected at 0.25, 0.5, 1, 2, 3 & 8 hours after dosing. For acetylated histone and tubulin detection, organs/tissues were pooled for each vehicle and drug-treated organ group. RNA and protein were extracted from the samples with the PARIS Protein and RNA Isolation System (Ambion). Levels of acetylated and total α-tubulin & histones were evaluated by immunoblotting.

[9] = system: HDACi-responsive biomarker genes; experiment: Taqman mRNA levels of HDACi-responsive biomarker genes in mouse tissues after dosing; assay type: in vivo; settings: mice, 50 mg/kg, 3 and 8 hours after administration, 13 tissues
Description: RNA expression profiles were determined using on a GE-Codelink Mouse Unisetl 10K oligonucleotide arrays in duplicate. Each treated sample was normalized to the corresponding vehicle control. In order to validate the expression profile of HDADi-responsive genes identified by the gene expression array assays, Taqman gene expression assays were performed using Applied Biosystems Inc. assays. One-step RT-PCR was carried out in triplicate on 25 ng of total RNA from each sample on a ABI PRISM 7700 instrument. The mRNA levels for each gene were normalized to the amount of RNA in the well as measured in parallel using Ribogreen (Molecular Probes). The treated samples were then normalized to the vehicle control at that time point. We then determined the in vivo expression levels for five of the RDACi-responsive biomarker genes in various tissues following 3 hours or 8 hours following administration of PCI-24781 (50 mg/kg). A Taqman assay was performed to determine mRNA expression levels in brain, colon, kidney, liver, stomach, ovary, uterus, mammary, muscle, heart, lung, spleen, and pancreas. The issue distribution pattern was very reproducible across the biomarker set.

## CN(C)Cc1c(C(=O)NCCOc2ccc(C(=O)NO)cc2)oc2ccccc12 [PCI-24781]
[1]
  % Resistance: 38%
[1]; of 24 tumors
  Intermediate IDR (number of tumors): 3
  Resistant EDR (number of tumors): 9
  Sensitive LDR (number of tumors): 12
[2]
  sensitivity to growth inhibition: all sensitive
[3]
  sensitivity to growth inhibition: resistant
AML primary tumor cells
  % Resistance: 10%
AML primary tumor cells; of 10 tumors
  Intermediate IDR (number of tumors): 4
  Resistant EDR (number of tumors): 1
  Sensitive LDR (number of tumors): 5
[4]
  % Resistance: 33%
[4]; of 6 tumors
  Intermediate IDR (number of tumors): 0
  Resistant EDR (number of tumors): 2
  Sensitive LDR (number of tumors): 4
[5]
  % Resistance: 25%
[5]; of 12 tumors
  Intermediate IDR (number of tumors): 4
  Resistant EDR (number of tumors): 3
  Sensitive LDR (number of tumors): 5
[6]
  % Resistance: 29%
[6]; of 7 tumors
  Intermediate IDR (number of tumors): 1
  Resistant EDR (number of tumors): 2
  Sensitive LDR (number of tumors): 4
[7]
  effect of treatment on expression of the identified resistance biomarker genes: not altered
[8]
  tubulin acetylation levels in PBMC: increases
[9]
  tissue with highest induction of mRNA of five HDACi-responsive biomarker genes: Ovary showed the highest level of induction, followed by uterus
